Patent publication US20070161609A1, “Use of mitochondrially targeted antioxidant in treatment and prevention of drug-induced liver disease” (priority 2006, published 2007)
Entries after “also recorded” stand apart in the source; their conditions may differ. Where two headings read alike, the source gives them in different places.

Legend:
[1] = cited from earlier work; for gross signs of toxicity: fed in drinking water two or three days, 500 μM or 1 mM MitoQ or MitoS, 500 μM MitoVit E; for safety of long term feeding to mice: long term basis, potentially therapeutically effective concentrations within brain, heart, liver, muscle
[2] = test system: mitochondria within isolated cells; conditions: in vitro; cited from earlier work
[3] = test system: fatty acid binding protein (FABP); assay: Western blot of fatty acid binding protein in liver extracts of intoxicated mice; type: in vivo, mouse; conditions: drug-intoxicated (paracetamol or carprofen) animals; versus non intoxicated vehicle controls
Protocol: (§1) Liver tissues are resuspended in ice-cold RIPA-buffer (50 mM Tris-HCl pH 7.4, 250 mM NaCl, 0.1% SDS, 1% deoxycholate, 1% NP-40) supplemented with 2 μg/ml leupeptin, 2 μg/ml pepstatin, 2 μg/ml aprotinin, 1 mM phenylmethylsulfonylfluoride (PMSF), and 2 mM dithiothreitol followed by homogenization through sonication (2 bursts of 5 seconds) on ice. After incubation for 20 minutes on ice, the lysates are cleared by two centrifugational steps in a microcentrifuge at 13,000 rpm for 15 minutes at 4° C. and the supernatants are collected. Protein concentrations are determined by the Bradford assay (Biorad) using bovine serum albumin as a standard. Equal amounts of protein (typically 10-30 μg) are separated on a 12% SDS-PAGE gel and transferred electrophoretically to a polyvinylidene diflouride (PVDF) membrane (Hybond-P, Amersham) through Semidry-blotting (TE 70, Amersham). The membrane is blocked for 1 hour at room temperature in blocking solution [5% milk in TBS-T (25 mM Tris-HCl pH 7.4, 137 mM NaCl, 3 mM KCl, comprising 0.1% Tween-20)] and incubated with the primary antibody solution (prepared in TBS-T/1% milk) at 4° C. overnight with agitation. […]
Furthermore, the protein expression level(s) of fatty acid binding protein (FABP) representing a sensitive marker for hepatocyte damage (Monbaliu D. et al., 2005, Transplant Proc. 37(1):413-416) is determined.

[4] = test system: immortalized hepatocytes (Fa2N-4 or Ea1C-35); assay: Reactive oxygen species in immortalized hepatocytes; type: cell-based; conditions: for ROS formation: hepatocytes intoxicated with e.g. paracetamol (10 mM for 2 hours), DDC or BSO, simultaneous treatment at EC50 concentrations
Protocol: Tested hepatocytes are grown in 96-well plates in culture medium (DMEM supplemented with 10% FCS, Gibco) to 80% confluency in the presence of paracetamol, subsequently washed with HBSS and incubated in the dark with DHE (10-50 μM) for 10 minutes at 37° C. Cells are then washed twice with Hank's balanced salt solution (HBSS, Gibco) to remove excess dye. Fluorescence is monitored in a fluorescence microscope (Olympus, Hamburg, Germany).
To determineDCF fluorescence in a microplate reader (Tecan, Crailsheim, Germany), immortalized hepatocytes are grown in 96-well plates to 80% confluency in presence of paracetamol. The cells are then washed twice with Hank's balanced salt solution (HBSS, Gibco) and incubated in the dark with CM-H2DCFDA (8.5 μM) dissolved in HBSS containing N-co-nitro-L-arginine methyl ester (L-NAME, 10 μM) for 10 minutes at 37° C. to prevent the formation of NO. After several washes with HBSS to remove excess dye, fluorescence is monitored by using 480 nm excitation and 540 nm emission wavelength. DCF fluorescence is standardized to the number of viable cells using the Alamar Blue test according to the manufacturer's instructions (Biosource, Nivelles, Belgium). […] The absorbance is then measured at the wavelength of 580 nm.
Optionally, ROS production can be assessed by flow cytometric analysis of CM-H2DCFDA stained cells. The cells intoxicated with paracetamol are detached and harvested by trypsinisation, collected by centrifugation and resuspended in HBSS at a concentration of 1×10^6 cells/ml. Cells are then loaded with 8.5 μM CM-H2DCFDA for 15 minutes in the dark at 37° C. before stimulation. The DCF fluorescence is monitored by analyzing 10,000 cells using 480 nm excitation and 540 nm emission wavelengths in a flow cytometer (Partec, Muenster, Germany).
The hepatocytes are then washed once with HBSS (Hanks' Balanced Salt Solution, Gibco) and incubated with MitoQ in concentration range of 0.5 to 10 μM or the respective amount of DMSO (Sigma). After 15 min DCF is added to the cells (final concentration of 8 μM) and cells are incubated with the dye for 10 min. After loading the media is removed and fresh HBSS is added containing MitoQ and CoCl2 (100 μM).
After 3 subsequent washing the cells are equilibrated in plates containing 1 ml of 50 mmol/L HEPES (pH 7.4), 135 mmol/L NaCl, 1 mmol/L CaCl2, 1 mmol/L MgCl2, 5 mmol/L KCl, 5.5 mmol/L glucose, and 5 μmol/L lucigenin as the electron acceptor. The light reaction between superoxide and lucigenin is detected using a chemiluminescence reader (Lumistar, BMG laboratories, Germany). The chemiluminescence signal is expressed as average counts per minute and normalized to cell number as determined by cell counter (Casy Technology Instrument, Schärfe-System, Germany).

[5] = test system: mice intoxicated with valproic acid; assay: Long term (three weeks) valproic acid intoxication, liver histology; type: in vivo, mouse; conditions: valproic acid 0.71% weight/volume for three weeks; 1.25 mg/kg daily i.p. or i.v.; compared to controls
Protocol: Chronic liver damage can be assessed in mice intoxicated with valproate (0.71% weight/volume) for up to 21 days when fatty degeneration of hepatocytes, activation of Kupffer cells, inflammation and hepatocyte necrosis can be detected (Raza M. 2000, Int J Tissue React., 22(1): 15-21).
In long term experiments by using mice intoxicated for three weeks with valproic acid (0.71% weight/volume), the presence (or absence) of cell damage in liver samples of treated animals is determined and compared to the corresponding control groups of animals.

hemoxygenase 1 (HO-1) = assay: Western blot of hemoxygenase 1 expression in liver extracts of intoxicated mice; type: in vivo, mouse; conditions: densitometry
Protocol: To evaluate hemoxygenase 1 (HO-1) protein expression know to be induced by oxidative stress (Suematsu M. and Ishimura Y., 2000, Hepatology, 31(1): 3-6) standard western blot analysis is performed using protein extracts derived from paracetamol- (or carprofen) intoxicated mice treated simultaneously for 1day (or 3 days) with MitoQ (diluted in 1% DMSO in PBS), vitamin E or just vehicle itself (see protocols in Example 3).
as §1, with “Amersham).” for “Amersham). The membrane is blocked for 1 hour at room temperature in blocking solution [5% milk in TBS-T (25 mM Tris-HCl pH 7.4, 137 mM NaCl, 3 mM KCl, comprising 0.1% Tween-20)] and incubated with the primary antibody solution (prepared in TBS-T/1% milk) at 4° C. overnight with agitation.”

[6] = test system: alanine- and aspartate aminotransferase; assay: Serum liver enzymes (blood parameters) in intoxicated animals; type: in vivo, mouse; conditions: compared to intoxicated control group
[7] = test system: DDC-intoxicated mouse liver; assay: Hepatocyte damage in mouse liver upon 3 days exposure to DDC (0.1%), MitoQ versus vitamin E (histology); conditions: MitoQ 12 mg/kg peritoneally, vitamin E 100 mg/kg subcutaneously
Protocol: FIGS. 3a and 3b: Comparison of MitoQ (12 mg/kg of animal;given peritoneally) and vitamin E (100 mg/kg of animal, applied subcutneously) effect on the degree of hepatocyte damage in mouse liver upon short term (3 days) exposure to DDC (0.1%)
Controls receive 300 μPBS only. Vitamin E is given subcutaneously in the same intervals as MitoQ at doses of 40 to 100 mg/kg dissolved in corn oil/PBS (1:5).

[8] = test system: carprofen- and DDC-intoxicated mice livers; assay: Hepatocyte damage in mouse liver upon 3 days exposure to carprofen in combination with DDC (histology); type: in vivo; conditions: carprofen 5 mg/kg + DDC 0.1% in diet, MitoQ 300 nmol/animal in PBS/1% DMSO
Description: Controls receive 300 μPBS only.

[9] = test system: paracetamol-intoxicated mice livers
Protocol: Mice (8 weeks old) are fed a standard diet. Paracetamol is administered by oral gavage (500 mg/kg of animal). Carprofen is given by intraperitoneal injection (three times every 24 hours) in combination with 0.1% DDC which is included in the diet.
Mice are sacrified at different time-points of intoxication by cervical dislocation and the livers are either immediately snap-frozen in methylbutane precooled with liquid nitrogen for immunofluorescence or fixed in 4% buffered formaldehyde for routine histology and immunohistochemistry.
To evaluate the impact of the antioxidants according to the invention on regression of morphological alterations in early stages of paracetamol-intoxicated mice livers, a group of animals are treated on day one with MitoQ (a mixture of MitoQuinol [10-(3,6-dihydroxy-4,5-dimethoxy-2 methylphenyl)decyl]triphenylphosphonium bromide and MitoQuinone [10-(4,5-dimethoxy-2-methyl-3,6-dioxo-1,4-cyclohexadien-1-yl)decyl]-triphenylphosphonium bromide (provided by Prof. Albin Hermetter, TU Graz, AT), diluted with PBS/1% DMSO in three different concentrations (200 nM, 300 nM and 400 nM) intraperitoneally with maximum administration volume 100 μl (controls receive 100 μl PBS/1% DMSO only). For injections, MitoQ is dissolved in PBS supplemented with sufficient DMSO (preferably 1%) to maintain solubility of antioxidants. Intraperitoneal or i.v. (tail vein) injections are given to pairs of mice and compared with vehicle-injected controls. These correspond to maximum tolerated dose of 20 mg of MitoQ/kg/day (750 nmol) according to Smith R. A. J et al., 2003, PNAS, 100 (9): 5407-5412.
On the second day MitoQ treatment is continued, additionally mice are intoxicated with 500 mg/kg paracetamol diluted with PBS po (maximum administration volume is 300 μl).

[10] = concentration used for treatment of intoxicated immortalized hepatocytes, read-out: EC50
[11] = paracetamol 500 mg/kg, 1 day, MitoQ 300 nmol/animal in PBS/1% DMSO, simultaneous, 24 hours pretreatment

| Compound | gross signs of toxicity [1] | safety of long term feeding to mice [1] | accumulation by mitochondria [2] | EC50 [4, 10] | ROS formation [4] | reduction of liver damage by serum liver enzymes (alanine- and aspartate aminotransferase) [6] | inflammatory cells [7] | liver morphology [7] | protoporphyrin accumulation in the bile ducts [7] | also measured |
| --- | --- | --- | --- | --- | --- | --- | --- | --- | --- | --- |
| Cc1c(C)c2c(c(C)c1O)CCC(C)(CC[P+](c1ccccc1)(c1ccccc1)c1ccccc1)O2 (stereo not drawn) [MitoVit E, [2-(3,4-dihydro-6-hydroxy-2,5,7,8-tetramethyl-2H-1-benzopyran-2-yl)ethyl]-triphenylphosphonium bromide] | without any gross signs of toxicity | could be fed safely | rapidly and selectively accumulated |  |  |  |  |  |  | maximum tolerated dose ([1]; 500 μM in drinking water): 60 mg/kg/day |
| C[P+](c1ccccc1)(c1ccccc1)c1ccccc1 [TPMP, reference compound] |  | could be fed safely |  |  |  |  |  |  |  |  |
| MitoQ | without any gross signs of toxicity | could be fed safely | rapidly and selectively accumulated | 1 µM | significant reduction | significant reduction | absent | restores normal liver morphology | persists | FABP protein expression [3]: reaches almost control mice FABP protein expression values; also recorded: reach almost control mice FABP expression values; degree of cell damage [5]: greatly reduced; HO-1 protein expression (hemoxygenase 1 (HO-1); compared to paracetamol intoxicated group of animals): significant reduction; HO-1 protein expression (hemoxygenase 1 (HO-1); compared to vitamin E treated mice): less significant reduction; inflammatory cells [8]: absent; liver morphology [8]: restores normal liver morpohology; blood congestion in the sinusoids [9, 11]: reduces blood congestion in the sinusoids; necrotic hepatocytes [9, 11]: only few single necrotic cells are seen; liver architecture (strands of hepatocytes bordered by sinusoids) ([9]; short-term experiments overall (paracetamol; carprofen + DDC), compared to vitamin E or untreated animals): is again visible |
| CCOC(=O)C1=C(C)NC(C)=C(C(=O)OCC)C1C [DDC] |  |  |  |  |  |  |  |  |  | EC50 ([4]; intoxicant, hepatocytes incubated up to 72 hours in culture medium (DMEM and 10% FCS)): 50 μg/ml of medium |
| vitamin E [reference compound] |  |  |  | 10 µM | significant reduction | less significant effect | still present in the periportal area | only partially restores normal liver morphology | persists |  |
